# Measurements: US20020137030A1, “METHOD OF DETECTION OF NEOPLASTIC CELLS” (JOHN HOPKINS UNIVERSITY SCHOOL OF MEDICINE, priority 1995, published 2002)
# Entries after “also recorded” stand apart in the source; their conditions may differ.
# How the values were obtained:
# Assay type in all cases: cell-based, human
# p16 [1] = assay: Re-expression of p16 (RT-PCR) after 5-deoxyazacytidine in methylated lung and head and neck cancer cell lines
# Protocol: (§1) Total RNA was extracted from cell lines by the guanidium-isothiocyanate-phenol-chloroform method (Chomczynski, P. & Sacchi, N., Analyt. Biochem, 162:156-159, 1987). Total RNA […] or poly-A (0.5 mg) was reverse transcribed by using Superscript II RNaseH^− (Gibco-BRL) reverse transcriptase (200 units) in the presence of hexamers (Pharmacia) and dNTP (Gibco-BRL). The cDNA was then amplified by PCR using the forward primer for exon 1 and the reverse primer for exons 2 or 3 (Kamb, et al., Science 264:436-440, 1994; and Serrano, et al., Nature 366:704-707, 1993) of p16 yielding a 428 or […] fragment respectively, which was run on 1.5% agarose gel. As a control, the […] fragment of p53 was amplified simultaneously. All reactions were repeated at least once. p16 primer sequence were as follows:
# (§2) In the methylation studies, the cDNA was then amplified by PCR using the forward primer for exon 1 and the reverse primer for exons 2 or 3 of CDKN2/p16 yielding a 428 or […] fragment respectively, which was run on 1.5% agarose gel. As a control, the […] fragment of p53 (or β-actin) was amplified simultaneously. All reactions were repeated at least once.
# (§3) Cells were grown in RPMI 1640 with 5-10% fetal calf serum depending on the growth requirements of each line. To assess re-expression, 5-deoxyazacytidine was supplemented to the medium at concentrations of […], and cells were harvested after three and five days.
# (§4) In order to test the hypothesis that 5′ CpG island methylation of p16 indeed blocks gene expression, five methylated cell lines (3 NSCLC and 2 HNSCC) were subjected for 3-5 days to different dosages (0.3-1 mmol) of the demethylating agent 5-deoxyazacytidine.
# 5′ CpG island of p16 = assay: Southern blot of 5′ CpG island methylation of p16 after 5-deoxyazacytidine
# Protocol: Southern blots were performed as described (de Bustros, et al., Proc. Natl. Acad. Sci. U.S.A., 85:5693-5697, 1988). Briefly, […] of genomic DNA were digested with of EcoRI (10 U/mg) alone or in combination with the methylation-sensitive enzymes SmaI, EagI or SacII (15 U/mg each) for 16 h as specified by the manufacturers (Gibco-BRL and New England Biolabs), run on a 1% agarose gel, transferred to a Zeta-Probe GT nylon membrane (Bio-Rad), and probed with 25 ng of the 0.35 kb and 0.5 kb PCR products of exons 1 and 2 of p16 after random primer labelling (Feinberg, A. P. & Vogelstein, B. A, Annal. Biochem. 137:266-267, 1984). The primer sequences for the PE1 probe are as follows: sense 5′ GAAGAAAGAGGAGGGGCTG (SEQ ID NO:20), and antisense 5′ […] (SEQ ID NO:21), amplified with an annealing temperature of 60° C. by adding 3.6% formamide to the PCR buffer. The c-abl probe was provided by J.-P. Issa. The blots were then exposed in a phosphorimager (MolecularDynamics). All cases with a partial methylation pattern were repeated to exclude imcomplete enzymatic activity.
# as §3, §4
# p16 [2] = assay: Re-expression of p16 mRNA (RT-PCR) after 5-deoxyazacytidine in colon cancer cell lines RKO and SW480; conditions: 3 days
# Protocol: as §1
# as §2, with “once. […]” for “once.”
# In contrast, normal breast and 3 of 4 tested colon mucosa samples had readily detectable p16 message. […]
# cancer cell lines = assay: Effects on cell growth, morphology and viability of cancer cell lines; conditions: non-specific; also seen in lines with homozygous deletions of p16, independent of methylation status
# Protocol: as §3
# However, these effects were non-specific and observed in cell lines with homozygous deletions of p16, and with retention of p16 alleles independent of methylation status. Therefore, we cannot attribute these non-specific effects to re-expression of p16, since other genes might also be affected by azacytidine.
compound,measurement,setting,value
Nc1ncn([C@H]2C[C@H](O)[C@@H](CO)O2)c(=O)n1 [5-deoxyazacytidine],re-expression of p16 message by RT-PCR,"p16 [1]; five methylated cell lines (3 NSCLC and 2 HNSCC), 0.3-1 mmol, 3-5 days, each dose and time tested",re-expressed the message of p16
same,re-expression of p16 (FIG. 5b),p16 [1]; methylated HNSCC cell lines (lanes 4 and 6),re-express p16
same,reexpression of p16 message on reversal of methylation,"p16 [1]; methylated cell lines, summary statement",reexpression of p16 message
same,"re-expression of p16, 428 bp RT-PCR product (FIG. 5d)","p16 [1]; transcriptionally silenced lines U1752 and H157, all doses and times",re-express p16
same,"demethylation of p16 5′ CpG island, EcoRI and SmaI Southern (FIG. 5c)",5′ CpG island of p16; line H157,Partial demethylation
same,"demethylation of p16 5′ CpG island, EcoRI and SmaI Southern (FIG. 5c)","5′ CpG island of p16; line H 1752, 1 and 0.5 mmol, 3 days and 5 days, all dosages and time points",demethylation was seen
same,demethylation of the monitored CpG sites,"5′ CpG island of p16; methylated cell lines, associated with reversal of the transcriptional block of p16",partial demethylation
same,p16 mRNA by RT-PCR after treatment,p16 [2],p16 gene mRNA was seen; also recorded: detectable p16 mRNA
same,"effects on cell growth, morphology, and viability",cancer cell lines,profound effects
